# From US20030161893A1, “PTPase inhibitors and methods of using the same” (priority 2001, published 2003)
# Legend:
# PTP1B = target: T1, PTP1B (Homo sapiens, UniProt P18031); test: In vitro PTPase assay, GST/PTP1B fusion protein; format: biochemical; conditions: 0.1 to 1 μg/ml
# T1 construct: purchased Upstate Biotechnology Inc. (Lake Placid, N.Y.)
# Protocol: In vitro PTPase activities were measured using the commercial protein tyrosine phosphatase assay kit (Upstate Biotechnology, Inc. (“UBI”)) following established procedure known to one of skill in the art. This assay measures the in vitro dephosphorylation of a synthetic phosphotyrosine peptide of the sequence Arg-Arg-Leu-Ile-Glu-Asp-Ala-Gle-Tyr-Ala-Ala-Arg-Gly, wherein the tyrosine is phosphorylated (SEQ ID NO: 3). Briefly, 0.01 μg of GST/PTPase fusion proteins was incubated in 50 μl of Tris buffer (10 mM Tris, pH 7.4) containing different concentrations of inhibitors or chemicals (0-1,000 μg/ml) at 22° C. for 10 minutes, followed by addition of 0.2 mM of the phosphotyrosine peptide and incubation at 22° C. for 18 hours. 100 μl of Malachite Green solution was added and incubated for 5 minutes, and the absorbance at 660 nm was measured after 5 minutes.
# Baf3 cells = test: Baf3 cell proliferation assay; format: cell-based, murine
# Protocol: The murine hematopoietic cell line Baf3 was maintained in RPMI 1640 medium supplemented with 10% fetal calf serum (FCS) and murine IL-3 (20 units/ml) as described previously in Damen et al., J. Biol. Chem. 270, 23402 (1995). Human myeloid cell line TF-1 was maintained in RPMI 1640 supplemented with 10% FCS and 40 ng/ml of recombinant human GM-CSF as described previously in Thomassen et al., Clin. Immunol. 95, 85 (2000). For cell proliferation assays, cells were washed in 10% FCS medium twice, resuspended in 10% FCS medium, incubated at 37° C. for 16 hours, and then cultured at 37° C. in 10% FCS medium containing various amounts of cytokines, sodium stibogluconate, or potassium antimonyl tartrate for 3-6 days as indicated. The cell numbers in proliferation assays were determined by an MTT assay or by microscopic cell counting as indicated.
# NB4 cells = test: NB4 cell differentiation (NBT reduction, CD11b); format: cell-based, human
# Protocol: Differentiation of AML cell lines was assessed by their ability to produce superoxide as measured by reduction of NBT to formazan and by analysis of expression of CD11b surface marker by flow cytometry. For NBT reduction, each cell suspension was mixed with an equal volume of solution containing 1 mg/ml of NBT (Sigma) and 2.5 μg/ml of TPA for 30 minutes at 37° C. After incubation, cells containing the purple formazan deposits and cells devoid of NBT-reducing activity (white cells) in each sample were determined by counting 200 cells under microscope. Data is expressed as a percentage based on the following ratio: purple cells/purple+white cells. For analysis of cell surface antigens, cells were exposed to phycoerythrin (PE)-conjugated murine anti-human CD11b (DAKO Corp., Carpinteria, Calif.). Analysis of fluorescence was performed on a FACScan flow cytometer (Beckton Dickinson, Mountain View, Calif.).
# DU145 cells = test: Cell proliferation assay (MTT), DU145 prostate cancer cells; format: cell-based, human
# Protocol: (§1) For cell proliferation assays, cells were grown in 10% FCS culture medium containing various amounts of IFNs and/or sodium stibogluconate in 96 well plates and cultured at 37° C. for 3 or 6 days as indicated. The numbers of viable cells in proliferation assays were determined by MTT assays as described in Phatak et al., J. Immunol. 167, 3391 (2001).
# (§2) NIH3T3 (Yi, et al., Blood 85, 87 (1995)), WM9 (Forsberg, et al., Proc. Nat. Acad Sci. USA 90, 393 (1993)), DU145 (Mickey, et al., Cancer Res. 37, 4049 (1977)), LoVo (Drewinko, et al., Cancer Res. 36, 467 (1976)), HEY (Buick, et al., Cancer Res. 45, 3668 (1985)), U251 (Yoshida, et al., Cancer 50, 410 (1982)), A549 (Giard, et al., J. Natl. Cancer Inst. 51, 1417 (1973)) and SK-N-SH (Helson, et al., Cancer Res. 35, 2594 (1975)) cell lines have been described and were cultured in RPMI 1640 supplemented with 10% fetal calf serum (FCS). For measurement of sodium stibogluconate effects on cell growth in vitro, cells were cultured in the absence (−) or presence (+) of various amounts of sodium stibogluconate for 6 days with viable cells quantified by MTT assays (Mosmann, J. Imunol. Methods 65, 55 (1983)). Percentages of growth inhibition by sodium stibogluconate were calculated (+/−×%).
# WiT49-N1 cells = test: Cell proliferation assay (MTT), WiT49-N1 Wilms tumor cells; format: cell-based, human; conditions: day 6
# Protocol: as §1
# [1] = tested on: WM9 PRL-1R86 transfectant; test: Growth of WM9 PRL-1R86 transfectant (MTT); format: cell-based, human; conditions: 50 or 100 μg/ml, 6 days
# Protocol: as §2
# The effects of sodium stibogluconate on intracellular PTPases were assessed using NIH3T3 or WM9 transfectants. NIH3T3 or WM9 cells were transfected with the pBabepuro vector (V) or pBabepuro expression constructs of Flag-tagged PRLs using Lipofectamine (BRL) following the manufacturer's procedures. […]
# T1 sequence (P18031 whole entry, species assumed, the tested form may be a part): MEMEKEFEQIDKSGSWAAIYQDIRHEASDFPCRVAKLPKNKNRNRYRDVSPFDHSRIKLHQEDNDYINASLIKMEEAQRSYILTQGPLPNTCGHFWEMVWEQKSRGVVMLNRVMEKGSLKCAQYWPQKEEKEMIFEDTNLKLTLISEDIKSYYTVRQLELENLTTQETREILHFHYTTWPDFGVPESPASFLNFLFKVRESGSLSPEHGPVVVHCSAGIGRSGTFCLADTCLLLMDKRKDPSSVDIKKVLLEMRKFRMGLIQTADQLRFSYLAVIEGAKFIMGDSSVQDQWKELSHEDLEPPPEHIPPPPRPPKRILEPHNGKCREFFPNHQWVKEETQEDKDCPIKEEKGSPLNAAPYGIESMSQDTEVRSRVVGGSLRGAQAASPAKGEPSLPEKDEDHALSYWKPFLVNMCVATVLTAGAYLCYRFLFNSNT
smiles,measurement,setting,value
O.O.O.O.O.O.O.O.O.O=C([O-])[C@@H]1[O][Sb]2([O-])([O][Sb]34([OH])[O][C@H]([C@H](O)CO)[C@H]([O]3)[C@H](C(=O)[O-])[O]4)[O][C@H]([C@H](O)CO)[C@@H]1[O]2.[Na+].[Na+].[Na+] [sodium stibogluconate],inhibition of PTP1B activity,PTP1B,only modestly effective
same,IL-3-induced Baf3 growth at high concentration,"Baf3 cells; 1,000 μg/ml",suppressed IL-3-induced Baf3 growth
same,Baf3 proliferation/viability in the absence of IL-3,Baf3 cells; day 3 culture,failed to support cell proliferation or maintain cell viability
same,interaction with ATRA in differentiation induction,NB4 cells,did not synergize with ATRA
same,reversibility of induced NB4 differentiation after drug removal,"NB4 cells; 6 days with drug (10 or 100 μg/ml), washed, 6 days without",not reversed
same,"killing of DU145 cells, single agent","DU145 cells; 50 μg/ml and 100 μg/ml, day 6 culture",killed all cells
same,"cell killing, DU145","DU145 cells; 100 μg/ml, day 6",near-complete cell killing
same,IFN-alpha-induced growth inhibition of DU145 in presence of drug,DU145 cells; day 6,augmented
same,growth inhibition of WiT49-N1 with added IFN-alpha,WiT49-N1 cells,not enhanced by IFN-alpha
same,sensitivity of WiT49-N1 cells,WiT49-N1 cells,sensitive
same,growth inhibition of R86 cells at higher doses,[1],only modest growth inhibition
